Assay results as given in the NIST ThermoML archive (doi:10.1021/acs.jced.9b00147).

Assay: xn = mol fraction of the nth substance listed
Details: 101.3 kPa, Liquid; for speed of sound: Single path-length method; for mass density: Vibrating tube method

CC(=O)[O-].OCC[NH2+]CCO [2,2'-azanediylbis(ethanol) acetate] + CC(C)O
Details	mass density, 293.15 K [kg/m3]	mass density, 303.15 K [kg/m3]	mass density, 313.15 K [kg/m3]	mass density, 323.15 K [kg/m3]	speed of sound, 293.15 K [m/s]	speed of sound, 303.15 K [m/s]	speed of sound, 313.15 K [m/s]	speed of sound, 323.15 K [m/s]
x1 = 0.102	857.7	849.5	841.1	832.5	1233.4	1200.3	1167.1	1133.6
x1 = 0.2	915.4	907.6	899.4	891.4	1301.5	1269.6	1237.8	1205.8
x1 = 0.299	965.3	957.7	949.8	942.3	1372.4	1341.2	1310.1	1279.1
x1 = 0.398	1009	1001	993.2	986.6	1448.2	1416.7	1386.3	1355.2
x1 = 0.502	1048	1041	1034	1025	1530.5	1498.3	1468.4	1438.7
x1 = 0.59	1076	1069	1061	1056	1596.5	1561.8	1530.4	1498.8
x1 = 0.696	1109	1102	1095	1089	1675.3	1638.8	1607	1576.7
x1 = 0.799	1137	1131	1124	1118	1756.3	1717.6	1684.7	1653.8
x1 = 0.9	1162	1155	1149	1142	1828.4	1782.1	1746.8	1714.4
x1 = 1	1180	1173	1167	1160	1884.7	1828.2	1788.6	1756

CC(=O)[O-].OCC[NH2+]CCO [2,2'-azanediylbis(ethanol) acetate] + CCCO
Details	mass density, 293.15 K [kg/m3]	mass density, 303.15 K [kg/m3]	mass density, 313.15 K [kg/m3]	mass density, 323.15 K [kg/m3]	speed of sound, 293.15 K [m/s]	speed of sound, 303.15 K [m/s]	speed of sound, 313.15 K [m/s]	speed of sound, 323.15 K [m/s]
x1 = 0.096	869.5	861.6	853.5	845.4	1286.3	1253.5	1221.2	1188.8
x1 = 0.199	929	921.2	913.4	905.7	1352.7	1321	1289.8	1258.8
x1 = 0.295	975	967.5	959.9	952	1415.2	1384.2	1353.6	1323.1
x1 = 0.4	1018	1012	1004	996.6	1488.2	1457.2	1427.3	1397.4
x1 = 0.501	1054	1047	1040	1033	1556.5	1524.7	1494.6	1465.4
x1 = 0.599	1085	1078	1072	1065	1626.4	1590.7	1559.2	1529.2
x1 = 0.697	1113	1106	1099	1093	1701.1	1657.4	1623.2	1592.3
x1 = 0.801	1137	1131	1124	1118	1756.5	1720.1	1688.9	1659.2
x1 = 0.901	1160	1153	1146	1140	1817.8	1772.9	1738.1	1707.4
x1 = 1	1180	1173	1167	1160	1884.7	1828.2	1788.6	1756

CC(=O)[O-].[NH3+]CCO [2-hydroxyethylammonium acetate] + CC(C)O
Details	mass density, 293.15 K [kg/m3]	mass density, 303.15 K [kg/m3]	mass density, 313.15 K [kg/m3]	mass density, 323.15 K [kg/m3]	speed of sound, 293.15 K [m/s]	speed of sound, 303.15 K [m/s]	speed of sound, 313.15 K [m/s]	speed of sound, 323.15 K [m/s]
x1 = 0.102	840.8	832.7	824.4	815.7	1218.6	1184.9	1151	1116.9
x1 = 0.2	888.4	880.8	872.9	864.8	1275.2	1242.9	1210.5	1177.8
x1 = 0.299	930.8	923.5	916	908.3	1334	1302.6	1271.5	1240.1
x1 = 0.397	970.4	963.3	956.2	948.5	1397.5	1366.2	1335.9	1305.6
x1 = 0.493	1007	999.7	992.8	985.5	1465.1	1435.1	1405.8	1376.6
x1 = 0.6	1042	1037	1030	1023	1549.8	1516.7	1487.9	1460.2
x1 = 0.692	1072	1066	1060	1052	1620.1	1588.6	1559.5	1532.3
x1 = 0.798	1103	1097	1091	1085	1701.8	1666.8	1638.2	1612
x1 = 0.894	1129	1124	1118	1112	1779	1742.8	1713.8	1687.8
x1 = 1	1150	1144	1139	1132	1812.9	1781.2	1754.7	1730.9

CC(=O)[O-].[NH3+]CCO [2-hydroxyethylammonium acetate] + CCCO
Details	mass density, 293.15 K [kg/m3]	mass density, 303.15 K [kg/m3]	mass density, 313.15 K [kg/m3]	mass density, 323.15 K [kg/m3]	speed of sound, 293.15 K [m/s]	speed of sound, 303.15 K [m/s]	speed of sound, 313.15 K [m/s]	speed of sound, 323.15 K [m/s]
x1 = 0.101	855.6	847.8	839.9	831.9	1274.5	1241.6	1208.9	1176.3
x1 = 0.199	900	892.5	884.8	877.1	1323.5	1291.7	1260.2	1228.7
x1 = 0.298	941.7	934.5	927.2	919.6	1377.3	1346.4	1316	1285.6
x1 = 0.401	981.1	974.1	967.3	960.3	1437.7	1407.8	1378.3	1348.9
x1 = 0.502	1016	1010	1003	996.3	1502	1472.9	1444.4	1416.3
x1 = 0.592	1046	1040	1033	1027	1561.1	1532.2	1504.3	1477
x1 = 0.681	1073	1067	1061	1055	1624.3	1595.1	1567.7	1541.3
x1 = 0.795	1104	1098	1092	1086	1711.5	1678.6	1650.8	1624
x1 = 0.89	1130	1124	1118	1112	1777.8	1743.4	1715.9	1690.2
x1 = 1	1150	1144	1139	1133	1812.9	1781.2	1754.7	1730.9
